Read-outs that look alike come from different tables or passages of the source.
Legend:
CDK17/cyclinY(h) = CDK17/cyclinY(h) (Homo sapiens (Human), UniProt Q00537); test: Kinase Profiler 10 μM panel
Experimental: (§1) In vitro kinase assays were conducted using Kinase Profiler services provided by Eurofins. The experimental method was as follows: the small molecule compound to be tested (0.001-10 μM), the protein kinase to be tested were incubated with a buffer containing substrate, 10 mM magnesium acetate, and [γ-^33P-ATP], the reaction was started by adding Mg\TPmix, after incubation for a period of time at room temperature, a 3% phosphate solution was added to the buffer to stop the reaction. Subsequently, 10 μL of the reaction mixture was quantitatively pipetted onto P30 filter paper, which was washed three times with 75 mM phosphate solution and then once with methanol. The P30 filter paper was air-dried and scintillation fluid was added for scintillation counting.

EphA7(h) = EphA7(h) (Homo sapiens (Human), UniProt Q15375); test: Kinase Profiler 10 μM panel
Experimental: as §1

[1] = target: PI3 Kinase (p110a/p65a)(h) (Homo sapiens (Human), UniProt P42336); test: Kinase Profiler 10 μM panel
Experimental: as §1

JNK3(h) = JNK3(h) (Homo sapiens (Human), UniProt P53779); test: Kinase Profiler 10 μM panel
Experimental: as §1

PIP4K2a(h) = PIP4K2a(h) (Homo sapiens (Human), UniProt P48426); test: Kinase Profiler 10 μM panel
Experimental: as §1

MLK2(h) = MLK2(h) (Homo sapiens (Human), UniProt Q02779); test: Kinase Profiler 10 μM panel
Experimental: (§2) The experimental method was as follows: the small molecule compound to be tested (0.001-10 μM), the protein kinase to be tested were incubated with a buffer containing substrate, 10 mM magnesium acetate, and [γ-^33P-ATP], the reaction was started by adding Mg\TPmix, after incubation for a period of time at room temperature, a 3% phosphate solution was added to the buffer to stop the reaction. Subsequently, 10 μL of the reaction mixture was quantitatively pipetted onto P30 filter paper, which was washed three times with 75 mM phosphate solution and then once with methanol. The P30 filter paper was air-dried and scintillation fluid was added for scintillation counting.

[2] = target: PI3 Kinase (p110a/p85a)(h) (Homo sapiens (Human), UniProt P42336); test: Kinase Profiler 10 μM panel
Experimental: as §2

ACK1(h) = ACK1(h) (Homo sapiens (Human), UniProt Q07912); test: Kinase Profiler 10 μM panel
Experimental: as §1

RIPK1(h) = RIPK1(h) (Homo sapiens (Human), UniProt Q13546); test: Kinase Profiler 10 μM panel
Experimental: as §1

NEK6(h) = NEK6(h) (Homo sapiens (Human), UniProt Q9HC98); test: Kinase Profiler 10 μM panel
Experimental: as §1

MAPKAP-K2(h) = MAPKAP-K2(h) (Homo sapiens (Human), UniProt P49137); test: Kinase Profiler 10 μM panel
Experimental: as §1

IGF-1R(h), activated = IGF-1R(h), activated (Homo sapiens (Human), UniProt P08069); test: Kinase Profiler 10 μM panel
Experimental: as §1

ErbB4(h) = ErbB4(h) (Homo sapiens (Human), UniProt Q15303); test: Kinase Profiler 10 μM panel
Experimental: as §1

PKAcβ(h) = PKAcβ(h) (Homo sapiens (Human), UniProt P22694); test: Kinase Profiler 10 μM panel
Experimental: as §1

DDR2(h) = DDR2(h) (Homo sapiens (Human), UniProt Q16832); test: Kinase Profiler 10 μM panel
Experimental: as §1

MST3(h) = MST3(h) (Homo sapiens (Human), UniProt Q9Y6E0); test: Kinase Profiler 10 μM panel
MST2(h) = MST2(h) (Homo sapiens (Human), UniProt Q13188); test: Kinase Profiler 10 μM panel
Experimental: as §1

Pyk2(h) = Pyk2(h) (Homo sapiens (Human), UniProt Q14289); test: Kinase Profiler 10 μM panel
Experimental: as §1

TYK2(h) = TYK2(h) (Homo sapiens (Human), UniProt P29597); test: Kinase Profiler 10 μM panel
Experimental: as §1

HT-29 cells = test: Protection against programmed necrosis of HT-29 cells (TNF α/Smac mimetic/Z-VAD-FMK, CCK8); type: cell-based; conditions: Homo sapiens
IGF-1R(h) = IGF-1R(h) (Homo sapiens (Human), UniProt P08069); test: Kinase Profiler 10 μM panel
Experimental: as §1

HIPK1(h) = HIPK1(h) (Homo sapiens (Human), UniProt Q86Z02); test: Kinase Profiler 10 μM panel
Experimental: as §1

IR(h) = IR(h) (Homo sapiens (Human), UniProt P06213); test: Kinase Profiler 10 μM panel
Experimental: as §1

Blk(m) = Blk(m) (Mus musculus (Mouse), UniProt P16277); test: Kinase Profiler 10 μM panel
Experimental: as §1

NEK7(h) = NEK7(h) (Homo sapiens (Human), UniProt Q8TDX7); test: Kinase Profiler 10 μM panel
Experimental: as §1

TSSK1(h) = TSSK1(h) (Homo sapiens (Human), UniProt Q9BXA7); test: Kinase Profiler 10 μM panel
Experimental: as §1

CDK12/cyclinK(h) = CDK12/cyclinK(h) (Homo sapiens (Human), UniProt Q9NYV4); test: Kinase Profiler 10 μM panel
Experimental: as §1

DAPK2(h) = DAPK2(h) (Homo sapiens (Human), UniProt Q9UIK4); test: Kinase Profiler 10 μM panel
Experimental: as §1

[3] = TNF α/Smac mimetic/Z-VAD-FMK induced 24 h, CCK8, read-out: HT-29 (EC50)
[4] = TSZ-induced, FIG. 3, read-out: EC50 value, programmed necrosis model of HT-29

Chain of PI3 Kinase (p110a/p85a)(h) (P42336 whole entry): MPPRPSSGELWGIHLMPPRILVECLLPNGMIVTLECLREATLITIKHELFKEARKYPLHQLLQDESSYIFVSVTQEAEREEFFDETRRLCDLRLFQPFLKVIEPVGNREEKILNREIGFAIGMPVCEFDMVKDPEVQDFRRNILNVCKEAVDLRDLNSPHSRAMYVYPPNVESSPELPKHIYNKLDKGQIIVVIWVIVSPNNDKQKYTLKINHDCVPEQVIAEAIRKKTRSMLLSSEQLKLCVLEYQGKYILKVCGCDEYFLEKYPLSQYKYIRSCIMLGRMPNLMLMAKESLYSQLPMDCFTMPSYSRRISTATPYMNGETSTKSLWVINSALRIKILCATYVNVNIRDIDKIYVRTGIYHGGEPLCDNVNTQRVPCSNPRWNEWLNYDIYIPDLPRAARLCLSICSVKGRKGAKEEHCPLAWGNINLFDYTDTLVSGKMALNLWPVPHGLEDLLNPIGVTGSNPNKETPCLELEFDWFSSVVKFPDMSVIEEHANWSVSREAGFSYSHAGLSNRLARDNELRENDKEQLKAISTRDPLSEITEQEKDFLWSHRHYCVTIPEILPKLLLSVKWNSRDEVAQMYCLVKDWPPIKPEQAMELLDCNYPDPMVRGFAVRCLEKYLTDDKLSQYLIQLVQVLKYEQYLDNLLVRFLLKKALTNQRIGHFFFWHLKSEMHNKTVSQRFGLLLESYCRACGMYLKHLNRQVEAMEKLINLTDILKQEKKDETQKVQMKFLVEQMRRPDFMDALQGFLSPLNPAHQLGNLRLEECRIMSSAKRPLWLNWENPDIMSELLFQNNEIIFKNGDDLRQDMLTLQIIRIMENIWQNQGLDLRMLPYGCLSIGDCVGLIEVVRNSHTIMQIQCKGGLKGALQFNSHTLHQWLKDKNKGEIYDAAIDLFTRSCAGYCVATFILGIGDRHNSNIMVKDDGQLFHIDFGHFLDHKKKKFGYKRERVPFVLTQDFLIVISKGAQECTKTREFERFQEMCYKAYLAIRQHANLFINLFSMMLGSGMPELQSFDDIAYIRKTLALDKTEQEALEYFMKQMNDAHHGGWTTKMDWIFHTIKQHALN
Chain of PI3 Kinase (p110a/p85a)(h) (P27986 whole entry partner): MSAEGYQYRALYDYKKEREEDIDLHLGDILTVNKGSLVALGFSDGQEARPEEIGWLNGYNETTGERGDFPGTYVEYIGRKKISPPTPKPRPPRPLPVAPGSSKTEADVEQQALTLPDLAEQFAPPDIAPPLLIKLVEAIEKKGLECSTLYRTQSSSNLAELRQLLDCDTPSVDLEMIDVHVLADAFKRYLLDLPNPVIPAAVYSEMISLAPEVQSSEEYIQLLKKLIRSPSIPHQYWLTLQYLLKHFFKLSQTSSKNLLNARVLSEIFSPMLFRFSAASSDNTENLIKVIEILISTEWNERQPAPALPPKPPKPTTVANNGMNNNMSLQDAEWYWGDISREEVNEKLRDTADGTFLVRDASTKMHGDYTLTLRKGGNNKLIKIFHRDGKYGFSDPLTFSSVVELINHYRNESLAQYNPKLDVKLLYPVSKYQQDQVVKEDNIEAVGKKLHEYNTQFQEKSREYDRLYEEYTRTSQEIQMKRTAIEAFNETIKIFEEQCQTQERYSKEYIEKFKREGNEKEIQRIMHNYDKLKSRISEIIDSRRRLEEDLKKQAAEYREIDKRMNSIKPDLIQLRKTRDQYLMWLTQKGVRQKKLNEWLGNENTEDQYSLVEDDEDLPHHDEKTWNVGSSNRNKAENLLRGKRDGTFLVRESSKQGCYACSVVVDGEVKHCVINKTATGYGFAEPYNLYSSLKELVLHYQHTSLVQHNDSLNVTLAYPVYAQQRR
Chain of PI3 Kinase (p110a/p65a)(h) (P42336 whole entry): as the sequence (P42336 whole entry) above
Chain of MST2(h) (Q13188 whole entry): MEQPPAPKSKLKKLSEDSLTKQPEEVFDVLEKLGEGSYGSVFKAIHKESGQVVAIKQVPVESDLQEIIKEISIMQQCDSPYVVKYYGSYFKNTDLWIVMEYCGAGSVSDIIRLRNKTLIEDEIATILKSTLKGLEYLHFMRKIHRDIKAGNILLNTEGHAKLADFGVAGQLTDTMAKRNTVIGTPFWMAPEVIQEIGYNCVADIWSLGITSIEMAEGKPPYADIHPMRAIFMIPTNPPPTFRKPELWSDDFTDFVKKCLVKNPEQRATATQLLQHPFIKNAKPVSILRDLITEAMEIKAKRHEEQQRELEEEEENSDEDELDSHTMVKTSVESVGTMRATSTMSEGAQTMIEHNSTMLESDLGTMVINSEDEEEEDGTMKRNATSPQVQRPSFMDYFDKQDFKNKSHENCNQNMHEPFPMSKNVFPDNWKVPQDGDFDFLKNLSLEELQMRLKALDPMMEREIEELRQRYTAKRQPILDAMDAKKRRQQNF
Chain of TYK2(h) (P29597 whole entry): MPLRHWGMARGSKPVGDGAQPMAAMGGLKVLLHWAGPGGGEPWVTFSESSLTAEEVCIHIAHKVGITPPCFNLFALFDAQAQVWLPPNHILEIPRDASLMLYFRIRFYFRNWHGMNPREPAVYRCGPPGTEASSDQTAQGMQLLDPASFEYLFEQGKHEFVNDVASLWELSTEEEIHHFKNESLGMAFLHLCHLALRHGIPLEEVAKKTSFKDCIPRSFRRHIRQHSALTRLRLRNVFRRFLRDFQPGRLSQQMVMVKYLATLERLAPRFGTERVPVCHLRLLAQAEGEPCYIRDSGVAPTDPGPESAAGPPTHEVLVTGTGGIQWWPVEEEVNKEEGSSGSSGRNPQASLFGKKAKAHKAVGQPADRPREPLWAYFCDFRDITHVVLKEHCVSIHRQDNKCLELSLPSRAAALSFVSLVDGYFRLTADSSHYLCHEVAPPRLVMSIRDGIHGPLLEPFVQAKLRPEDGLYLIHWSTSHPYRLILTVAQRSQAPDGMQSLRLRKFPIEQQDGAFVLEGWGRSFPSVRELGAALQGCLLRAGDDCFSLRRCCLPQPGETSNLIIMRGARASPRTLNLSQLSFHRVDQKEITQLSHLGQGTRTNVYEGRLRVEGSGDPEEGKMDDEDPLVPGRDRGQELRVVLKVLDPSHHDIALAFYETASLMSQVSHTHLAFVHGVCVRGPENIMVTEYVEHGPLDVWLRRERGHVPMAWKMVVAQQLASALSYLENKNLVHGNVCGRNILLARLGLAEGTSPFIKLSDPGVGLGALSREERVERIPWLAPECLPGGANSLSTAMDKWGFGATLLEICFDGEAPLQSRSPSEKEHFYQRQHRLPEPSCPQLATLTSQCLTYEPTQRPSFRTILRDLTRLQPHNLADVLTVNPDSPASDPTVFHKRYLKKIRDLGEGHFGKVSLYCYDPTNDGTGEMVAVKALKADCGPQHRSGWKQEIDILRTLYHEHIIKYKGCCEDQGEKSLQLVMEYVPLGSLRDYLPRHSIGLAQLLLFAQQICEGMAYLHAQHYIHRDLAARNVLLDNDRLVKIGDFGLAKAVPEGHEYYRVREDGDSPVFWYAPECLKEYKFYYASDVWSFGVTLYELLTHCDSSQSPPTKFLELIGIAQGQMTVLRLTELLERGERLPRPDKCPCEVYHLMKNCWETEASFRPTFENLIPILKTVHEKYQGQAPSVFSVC
Chain of CDK17/cyclinY(h) (Q00537 whole entry): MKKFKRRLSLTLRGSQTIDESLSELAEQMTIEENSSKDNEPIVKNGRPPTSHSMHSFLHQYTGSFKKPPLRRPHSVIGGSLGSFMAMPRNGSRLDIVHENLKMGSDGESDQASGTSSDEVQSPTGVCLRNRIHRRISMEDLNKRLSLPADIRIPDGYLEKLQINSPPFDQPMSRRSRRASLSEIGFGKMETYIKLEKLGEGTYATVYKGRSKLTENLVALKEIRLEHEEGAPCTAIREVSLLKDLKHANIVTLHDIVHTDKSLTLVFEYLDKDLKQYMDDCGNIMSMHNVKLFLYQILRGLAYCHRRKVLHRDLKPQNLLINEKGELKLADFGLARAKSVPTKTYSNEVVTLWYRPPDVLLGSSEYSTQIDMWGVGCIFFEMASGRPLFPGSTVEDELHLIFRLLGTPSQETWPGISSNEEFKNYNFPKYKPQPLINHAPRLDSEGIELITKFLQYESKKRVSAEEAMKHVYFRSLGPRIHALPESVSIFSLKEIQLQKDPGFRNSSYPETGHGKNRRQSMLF
Chain of CDK17/cyclinY(h) (Q8ND76 whole entry partner): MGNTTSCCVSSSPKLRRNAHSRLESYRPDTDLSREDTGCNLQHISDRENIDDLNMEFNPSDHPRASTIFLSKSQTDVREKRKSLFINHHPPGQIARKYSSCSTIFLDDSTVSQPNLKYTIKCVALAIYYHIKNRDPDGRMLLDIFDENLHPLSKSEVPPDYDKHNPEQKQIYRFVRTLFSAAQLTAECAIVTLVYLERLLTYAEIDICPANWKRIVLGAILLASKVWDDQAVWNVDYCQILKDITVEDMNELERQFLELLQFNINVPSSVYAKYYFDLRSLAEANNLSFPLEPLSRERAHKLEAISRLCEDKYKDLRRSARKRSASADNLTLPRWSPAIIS
Chain of Blk(m) (P16277 whole entry): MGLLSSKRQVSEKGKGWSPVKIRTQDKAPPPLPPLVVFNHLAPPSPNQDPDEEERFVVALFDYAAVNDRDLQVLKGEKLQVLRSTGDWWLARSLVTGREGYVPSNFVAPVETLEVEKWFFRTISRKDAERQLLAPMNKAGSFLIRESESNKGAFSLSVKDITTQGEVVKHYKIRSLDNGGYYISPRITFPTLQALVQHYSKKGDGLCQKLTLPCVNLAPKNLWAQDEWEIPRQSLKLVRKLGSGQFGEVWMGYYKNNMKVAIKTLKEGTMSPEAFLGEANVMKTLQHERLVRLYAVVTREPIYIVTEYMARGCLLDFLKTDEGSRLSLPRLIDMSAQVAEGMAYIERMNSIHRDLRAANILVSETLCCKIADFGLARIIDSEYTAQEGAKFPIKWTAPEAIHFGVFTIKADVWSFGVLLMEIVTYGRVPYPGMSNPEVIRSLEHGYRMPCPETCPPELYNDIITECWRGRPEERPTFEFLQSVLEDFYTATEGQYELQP

Structure (SMILES): C[C@H](NC(=O)c1c[nH]c2ccc(-c3ccc4nc(NC(=O)C5CC5)sc4c3)cc12)c1cccc(F)c1 [Compound 34, (S)-5-(2-(cyclopropanecarboxamido)benzo[d]thiazol-6-yl)-N-(1-(3-fluorophenyl)ethyl)-1H-indole-3-carboxamide]
- Inhibition ratio (CDK17/cyclinY(h)): −11%
- Inhibition ratio (EphA7(h)): 96%
- Inhibition ratio [1]: 55%
- Inhibition ratio (JNK3(h)): 63%
- Inhibition ratio (PIP4K2a(h)): 17%
- Inhibition ratio (MLK2(h)): 99%
- Inhibition ratio [2]: 23%
- Inhibition ratio (ACK1(h)): 35%
- Inhibition ratio (RIPK1(h)): 100%
- Inhibition ratio (NEK6(h)): 4%
- Inhibition ratio (MAPKAP-K2(h)): −7%
- Inhibition ratio (IGF-1R(h), activated): 21%
- Inhibition ratio (ErbB4(h)): 22%
- Inhibition ratio (PKAcβ(h)): −4%
- Inhibition ratio (DDR2(h)): 76%
- Inhibition ratio (MST3(h)): 7%
- Inhibition ratio (MST2(h)): −9%
- Inhibition ratio (Pyk2(h)): 45%
- Inhibition ratio (TYK2(h)): 12%
- EC50 (HT-29 cells; [3]): < 1 nM
- EC50 (HT-29 cells; [4]): 0.117 nM
- Inhibition ratio (IGF-1R(h)): 28%
- Inhibition ratio (HIPK1(h)): 68%
- Inhibition ratio (IR(h)): 36%
- Inhibition ratio (Blk(m)): 65%
- Inhibition ratio (NEK7(h)): 4%
- Inhibition ratio (TSSK1(h)): 12%
- Inhibition ratio (CDK12/cyclinK(h)): 21%
- Inhibition ratio (DAPK2(h)): 13%

Structure (SMILES): C[C@H](NC(=O)c1cn(C)c2ccc(-c3ccn4nc(NC(=O)C5CC5)nc4c3)cc12)c1cccc(F)c1 [Compound 94, (S)-5-(2-(cyclopropanecarboxamido)-[1,2,4]triazolo[1,5-a]pyridin-7-yl)-N-(1-(3-fluorophenyl)ethyl)-1-methyl-1H-indole-3-carboxamide]
- Inhibition ratio/% (CDK17/cyclinY(h)): 70%
- Inhibition ratio/% (EphA7(h)): 20%
- Inhibition ratio/% [1]: 4%
- Inhibition ratio/% (JNK3(h)): 40%
- Inhibition ratio/% (PIP4K2a(h)): 7%
- Inhibition ratio/% (MLK2(h)): 99%
- Inhibition ratio/% [2]: 3%
- Inhibition ratio/% (ACK1(h)): 33%
- Inhibition ratio/% (RIPK1(h)): 100%
- Inhibition ratio/% (NEK6(h)): 23%
- Inhibition ratio/% (MAPKAP-K2(h)): −1%
- Inhibition ratio/% (IGF-1R(h), activated): −17%
- Inhibition ratio/% (ErbB4(h)): 63%
- Inhibition ratio/% (PKAcβ(h)): 40%
- Inhibition ratio/% (DDR2(h)): 20%
- Inhibition ratio/% (MST3(h)): 33%
- Inhibition ratio/% (MST2(h)): −14%
- Inhibition ratio/% (Pyk2(h)): −5%
- Inhibition ratio/% (TYK2(h)): 50%
- EC50 (HT-29 cells; [3]): < 1 nM
- EC50 (HT-29 cells; [4]): 0.012 nM
- Inhibition ratio/% (IGF-1R(h)): −4%
- Inhibition ratio/% (HIPK1(h)): 48%
- Inhibition ratio/% (IR(h)): 27%
- Inhibition ratio/% (Blk(m)): 77%
- Inhibition ratio/% (NEK7(h)): 43%
- Inhibition ratio/% (TSSK1(h)): −8%
- Inhibition ratio/% (CDK12/cyclinK(h)): −8%
- Inhibition ratio/% (DAPK2(h)): 3%

— patent US20230365546A1, “5-SUBSTITUTED INDOLE 3-AMIDE DERIVATIVES, PREPARATION METHOD AND USE THEREOF” (ORIGIANT PHARMACEUTICAL CO., LTD, priority 2020, published 2023)
